From US20250195521A1 (Revolution Medicines, Inc., priority 2020, published 2025)
Like-named read-outs stand apart in the source and are kept apart here.

Assays:
KRAS G13C = KRAS G13C (Homo sapiens (Human), UniProt P01116+P62937, G13C); assay: Ras-Raf disruption/FRET/MOA assay, KRAS G13C; assay type: biochemical
Source text: (§1) Disruption of B-Raf Ras-Binding Domain (BRAF^RBD) Interaction with K-Ras by Compounds of the Invention (Also Called a FRET Assay or an MOA Assay)
(§2) Note—The following protocol describes a procedure for monitoring disruption of K-Ras G12C (GMP-PNP) binding to BRAF^RBD by a compound of the invention. This protocol may also be executed substituting other Ras proteins or nucleotides, such as K-Ras G12D and K-Ras G13D.
(§3) The purpose of this biochemical assay was to measure the ability of test compounds to facilitate ternary complex formation between a nucleotide-loaded K-Ras isoform and Cyclophilin A; the resulting ternary complex disrupts binding to a BRAF^RBD construct, inhibiting K-Ras signaling through a RAF effector. Data is reported as IC50 values.
(§4) In assay buffer containing 25 mM HEPES pH 7.3, 0.002% Tween20, 0.1% BSA, 100 mM NaCl and 5 mM MgCl2, tagless Cyclophilin A, His6-K-Ras-GMPPNP, and GST-BRAF^RBD were combined in a 384-well assay plate at final concentrations of 25 μM, 12.5 nM, and 50 nM, respectively. Compound was present in plate wells as a 10-point 3-fold dilution series starting at a final concentration of 30 μM. After incubation at 25° C. for 3 hours, a mixture of anti-His Eu—W1024 and anti-GST allophycocyanin was then added to assay sample wells at final concentrations of 10 nM and 50 nM, respectively, and the reaction incubated for an additional 1.5 hours. […] Compounds that facilitate disruption of a K-Ras: RAF complex were identified as those eliciting a decrease in the TR-FRET ratio relative to DMSO control wells.

KRAS G12C = KRAS G12C (Homo sapiens (Human), UniProt P01116+P62937, G12C); assay: Ras-Raf disruption/FRET/MOA assay, KRAS G12C; assay type: biochemical
Source text: as §1, §2, §3, §4

NRAS G12C = NRAS G12C (Homo sapiens (Human), UniProt P01111+P62937, G12C); assay: Ras-Raf disruption/FRET/MOA assay, NRAS G12C; assay type: biochemical
Source text: as §1, §2, §3, §4

AsPC-1 (K-Ras G12D) [1] = assay: Potency assay: pERK; assay type: cell-based, human; conditions: Homo sapiens, ASPC1, read-out: pERK EC50
Outline: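 pERK decrease measured after 4 h compound treatment at 37 °C (10 three-fold dilutions, duplicate wells), by either fixed-cell In-Cell Western with DRAQ5 counterstain or AlphaLISA on lysates. Signal fitted against log concentration with a four-parameter model to give IC50.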

KRAS WT = KRAS WT (Homo sapiens (Human), UniProt P01116+P62937); assay: Ras-Raf disruption/FRET/MOA assay, KRAS WT; assay type: biochemical
Source text: as §1, §2, §3, §4

KRAS G12S = KRAS G12S (Homo sapiens (Human), UniProt P01116+P62937, G12S); assay: Ras-Raf disruption/FRET/MOA assay, KRAS G12S; assay type: biochemical
Source text: as §1, §2, §3, §4

AsPC-1 (K-Ras G12D) [2] = assay: CellTiter-Glo cell viability assay, AsPC-1; assay type: cell-based, human; conditions: Homo sapiens, ASPC1, 120 h, read-out: AsPC-1 Cell Viability IC50
Outline: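 Viability of K-Ras mutant lines is measured by ATP luminescence after five days of compound treatment. Percent of DMSO control is calculated and dose-response data are fitted with a four-parameter logistic equation.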

KRAS G12D = KRAS G12D (Homo sapiens (Human), UniProt P01116+P62937, G12D); assay: Ras-Raf disruption/FRET/MOA assay, KRAS G12D; assay type: biochemical
Source text: as §1, §2, §3, §4

KRAS G12V = KRAS G12V (Homo sapiens (Human), UniProt P01116+P62937, G12V); assay: Ras-Raf disruption/FRET/MOA assay, KRAS G12V; assay type: biochemical
Source text: as §1, §2, §3, §4

KRAS G13D = KRAS G13D (Homo sapiens (Human), UniProt P01116+P62937, G13D); assay: Ras-Raf disruption/FRET/MOA assay, KRAS G13D; assay type: biochemical
Source text: as §1, §2, §3, §4

[3] = read-out: KRAS G12C FRET data IC50
[4] = read-out: NRAS G12C FRET data IC50

Chain of KRAS G12S (P01116 other isoform, or with tags, fused parts or gaps G12S): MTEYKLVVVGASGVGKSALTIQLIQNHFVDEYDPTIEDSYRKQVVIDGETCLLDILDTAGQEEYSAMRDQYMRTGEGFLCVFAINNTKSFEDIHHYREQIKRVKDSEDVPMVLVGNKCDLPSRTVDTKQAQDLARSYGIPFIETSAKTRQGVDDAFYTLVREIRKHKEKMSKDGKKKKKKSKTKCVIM
Chain of KRAS G12S (P62937 whole entry): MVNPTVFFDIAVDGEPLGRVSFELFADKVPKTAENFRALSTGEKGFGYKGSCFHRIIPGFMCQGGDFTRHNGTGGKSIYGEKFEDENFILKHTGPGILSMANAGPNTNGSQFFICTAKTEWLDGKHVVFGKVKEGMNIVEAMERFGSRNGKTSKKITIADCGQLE
Chain of KRAS G13D (P01116 other isoform, or with tags, fused parts or gaps G13D): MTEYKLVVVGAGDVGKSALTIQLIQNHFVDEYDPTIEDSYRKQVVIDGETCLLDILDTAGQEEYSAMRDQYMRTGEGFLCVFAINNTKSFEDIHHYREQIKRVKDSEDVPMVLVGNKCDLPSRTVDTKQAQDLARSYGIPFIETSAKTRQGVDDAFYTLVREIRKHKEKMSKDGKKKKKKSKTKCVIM
Chain of KRAS G13D (P62937 whole entry): as the sequence (P62937 whole entry) above
Chain of KRAS G12V (P01116 other isoform, or with tags, fused parts or gaps G12V): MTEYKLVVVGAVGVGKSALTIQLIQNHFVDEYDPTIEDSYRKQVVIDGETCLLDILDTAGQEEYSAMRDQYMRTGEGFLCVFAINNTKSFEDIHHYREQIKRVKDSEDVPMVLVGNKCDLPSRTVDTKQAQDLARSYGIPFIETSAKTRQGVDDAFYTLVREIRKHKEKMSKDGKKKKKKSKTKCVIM
Chain of KRAS G12V (P62937 whole entry): as the sequence (P62937 whole entry) above
Chain of NRAS G12C (P01111 whole entry G12C): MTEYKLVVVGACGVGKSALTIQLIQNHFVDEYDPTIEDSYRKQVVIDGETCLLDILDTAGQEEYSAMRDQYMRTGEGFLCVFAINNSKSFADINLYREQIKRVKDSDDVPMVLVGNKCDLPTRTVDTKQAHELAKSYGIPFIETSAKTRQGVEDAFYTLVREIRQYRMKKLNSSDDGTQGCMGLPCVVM
Chain of NRAS G12C (P62937 whole entry): as the sequence (P62937 whole entry) above
Chain of KRAS WT (P01116 other isoform, or with tags, fused parts or gaps): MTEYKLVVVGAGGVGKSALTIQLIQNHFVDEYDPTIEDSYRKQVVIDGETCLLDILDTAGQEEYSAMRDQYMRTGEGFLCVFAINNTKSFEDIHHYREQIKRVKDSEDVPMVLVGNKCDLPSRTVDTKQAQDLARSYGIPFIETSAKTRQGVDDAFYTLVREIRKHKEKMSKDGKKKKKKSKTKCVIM
Chain of KRAS WT (P62937 whole entry): as the sequence (P62937 whole entry) above
Chain of KRAS G12C (P01116-2 other isoform, or with tags, fused parts or gaps G12C): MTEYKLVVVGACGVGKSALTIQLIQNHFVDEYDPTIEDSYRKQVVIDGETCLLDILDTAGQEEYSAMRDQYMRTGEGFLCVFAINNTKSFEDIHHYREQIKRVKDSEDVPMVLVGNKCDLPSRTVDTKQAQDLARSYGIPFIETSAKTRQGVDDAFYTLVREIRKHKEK
Chain of KRAS G12C (P62937 whole entry): as the sequence (P62937 whole entry) above
Chain of KRAS G13C (P01116 other isoform, or with tags, fused parts or gaps G13C): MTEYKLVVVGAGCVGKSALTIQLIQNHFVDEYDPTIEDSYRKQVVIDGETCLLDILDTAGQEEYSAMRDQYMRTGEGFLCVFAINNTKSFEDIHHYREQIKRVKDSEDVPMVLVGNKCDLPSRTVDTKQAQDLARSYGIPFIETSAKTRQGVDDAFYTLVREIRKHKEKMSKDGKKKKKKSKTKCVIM
Chain of KRAS G13C (P62937 whole entry, the tested form may be a part): as the sequence (P62937 whole entry) above
Chain of KRAS G12D (P01116 other isoform, or with tags, fused parts or gaps G12D): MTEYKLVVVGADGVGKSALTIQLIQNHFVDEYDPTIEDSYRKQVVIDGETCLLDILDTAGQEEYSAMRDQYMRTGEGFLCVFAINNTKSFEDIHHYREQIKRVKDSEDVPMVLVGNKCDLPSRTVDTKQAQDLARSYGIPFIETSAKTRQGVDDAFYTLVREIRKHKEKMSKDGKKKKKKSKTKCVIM
Chain of KRAS G12D (P62937 whole entry): as the sequence (P62937 whole entry) above

Compound	IC50 (KRAS G13C; read-out: KRAS G13C FRET IC50) [µM]	IC50 (KRAS G12C; [3]) [µM]	IC50 (NRAS G12C; [4]) [µM]	IC50 (KRAS WT; read-out: KRAS WT FRET IC50) [µM]	IC50 (KRAS G12S; read-out: KRAS G12S FRET IC50) [µM]	IC50 (KRAS G12D; read-out: KRAS G12D FRET IC50) [µM]	IC50 (KRAS G12V; read-out: KRAS G12V FRET IC50) [µM]	IC50 (KRAS G13D; read-out: KRAS G13D FRET IC50) [µM]	IC50 (KRAS G13C) [µM]	IC50 (KRAS G12C) [µM]	IC50 (NRAS G12C) [µM]	EC50 (AsPC-1 (K-Ras G12D) [1]) [µM]	IC50 (KRAS WT) [µM]	IC50 (KRAS G12S) [µM]	IC50 (AsPC-1 (K-Ras G12D) [2]) [µM]	IC50 (KRAS G12D) [µM]	IC50 (KRAS G12V) [µM]	IC50 (KRAS G13D) [µM]
CCn1c(-c2cnccc2COC)c2c3cc(ccc31)-c1cc(O)cc(c1)C[C@H](NC(=O)[C@H](C(C)C)N(C)C(=O)CN(C)C(=O)[C@H]1N[C@H]1C(=O)OC)C(=O)N1CCC[C@H](N1)C(=O)OCC(C)(C)C2 [Example 51]	–	–	–	–	–	–	–	–	0.01 to 0.1	0.01 to 0.1	0.1 to 1	< 5	0.1 to 1	0.1 to 1	> 10	0.1 to 1	0.1 to 1	0.1 to 1
CCn1c(-c2cnccc2COC)c2c3cc(ccc31)-c1cccc(c1)C[C@H](NC(=O)[C@H](C(C)C)N(C)C(=O)CCN=C=Nc1ccccc1COC)C(=O)N1CCC[C@H](N1)C(=O)OCC(C)(C)C2 [Example 63]	1 to 10	1 to 10	1 to 10	1 to 10	1 to 10	1 to 10	1 to 10	> 10	–	–	–	–	–	–	–	–	–	–
CCn1c(-c2cnccc2COC)c2c3cc(ccc31)-c1cccc(c1)C[C@H](NC(=O)[C@H](C(C)C)N(C)C(=O)CCN=C=Nc1ccc(N3CCOCC3)cc1)C(=O)N1CCC[C@H](N1)C(=O)OCC(C)(C)C2 [Example 67]	1 to 10	0.1 to 1	0.1 to 1	1 to 10	1 to 10	1 to 10	1 to 10	1 to 10	–	–	–	–	–	–	–	–	–	–
CCn1c(-c2cnccc2COC)c2c3cc(ccc31)-c1cccc(c1)C[C@H](NC(=O)[C@H](C(C)C)N(C)C(=O)CCN=C=NCc1c(OC)cccc1OC)C(=O)N1CCC[C@H](N1)C(=O)OCC(C)(C)C2 [Example 75]	> 10	0.1 to 1	0.1 to 1	> 10	> 10	> 10	1 to 10	> 10	–	–	–	–	–	–	–	–	–	–
CCn1c(-c2cnccc2COC)c2c3cc(ccc31)-c1cc(O)cc(c1)C[C@H](NC(=O)[C@H](C(C)C)N(C)C(=O)CN(C)C(=O)[C@H]1N[C@H]1c1ccc(OC)cc1)C(=O)N1CCC[C@H](N1)C(=O)OCC(C)(C)C2 [Example 93]	–	–	–	–	–	–	–	–	0.01 to 0.1	0.01 to 0.1	0.01 to 0.1	< 5	0.01 to 0.1	0.01 to 0.1	> 10	0.1 to 1	0.01 to 0.1	0.1 to 1

Second part, led by results:

IC50 (KRAS G13C; read-out: KRAS G13C FRET IC50) [µM]	IC50 (KRAS G12C; [3]) [µM]	IC50 (NRAS G12C; [4]) [µM]	IC50 (KRAS WT; read-out: KRAS WT FRET IC50) [µM]	IC50 (KRAS G12S; read-out: KRAS G12S FRET IC50) [µM]	IC50 (KRAS G12D; read-out: KRAS G12D FRET IC50) [µM]	IC50 (KRAS G12V; read-out: KRAS G12V FRET IC50) [µM]	IC50 (KRAS G13D; read-out: KRAS G13D FRET IC50) [µM]	Compound	IC50 (KRAS G13C) [µM]	IC50 (KRAS G12C) [µM]	IC50 (NRAS G12C) [µM]	EC50 (AsPC-1 (K-Ras G12D) [1]) [µM]	IC50 (KRAS WT) [µM]	IC50 (KRAS G12S) [µM]	IC50 (AsPC-1 (K-Ras G12D) [2]) [µM]	IC50 (KRAS G12D) [µM]	IC50 (KRAS G12V) [µM]	IC50 (KRAS G13D) [µM]
0.1 to 1	0.1 to 1	0.1 to 1	1 to 10	1 to 10	1 to 10	1 to 10	1 to 10	CCn1c(-c2cnccc2COC)c2c3cc(ccc31)-c1cccc(c1)C[C@H](NC(=O)[C@H](C(C)C)N(C)C(=O)CCN=C=Nc1ccc(N(C)C)cc1)C(=O)N1CCC[C@H](N1)C(=O)OCC(C)(C)C2 [Example 66]	–	–	–	–	–	–	–	–	–	–
1 to 10	0.1 to 1	0.1 to 1	1 to 10	1 to 10	1 to 10	1 to 10	> 10	CCn1c(-c2cnccc2COC)c2c3cc(ccc31)-c1cccc(c1)C[C@H](NC(=O)[C@H](C(C)C)N1CC[C@@H](CN=C=NCCOC)C1)C(=O)N1CCC[C@H](N1)C(=O)OCC(C)(C)C2 [Example 80]	–	–	–	–	–	–	–	–	–	–
> 10	0.1 to 1	1 to 10	> 10	> 10	> 10	1 to 10	> 10	CCn1c(-c2cnccc2COC)c2c3cc(ccc31)-c1cccc(c1)C[C@H](NC(=O)[C@H](C(C)C)N1CC[C@H](CN=C=Nc3ccc(OC)cc3)C1)C(=O)N1CCC[C@H](N1)C(=O)OCC(C)(C)C2 [Example 81]	–	–	–	–	–	–	–	–	–	–
